US8895558B2, “Arylpiperazine-containing pyrrole 3-carboxamide derivatives for treating depressive disorders” (Green Cross Corporation, priority 2008, dated 2014)
pIC50: −log10 of the molar value. Where a name gives a salt, the structure may show the parent alone.

How the values were obtained:
[1] = target: T1, human recombinant serotonin 5-HT2A receptor (Homo sapiens, UniProt P28223); experiment: Binding affinity for serotonin 5-HT2A receptor ([3H]Ketanserin); details: CHO-K1 expressed receptor, 1 nM [3H]Ketanserin
T1 construct: purchased PerkinElmer Life and Analytical Sciences, USA; host or cells: CHO-K1
Procedure: Receptor binding affinities of the compounds for serotonin receptors were measured by the method described in the literature [Park W K et al., Pharmacol Biochem Behav. 2005, 82(2), 361-372].
For serotonin 5-HT2A binding, an aliquot of human recombinant serotonin 5-HT2A receptor (PerkinElmer Life and Analytical Sciences, USA) expressed in CHO-K1 cells (5 ug/well) and 1 nM [^3H]Ketanserin (PerkinElmer) were used in the presence of mianserin (20 uM) as nonspecific. The reaction mixture was incubated for 60 min at 27 using 50 mM Tris-HCl (pH 7.4) buffer containing 4 mM CaCl2 and 0.1% ascorbic acid, and harvested through filtermate A glass fiber filter (Wallac, Finland) presoaked in 0.5% polyethyleneimine (PEI) by microbeta filtermate-96 harvester (PerkinElmer) to terminate the reaction, and then washed with ice cold 50 mM Tris-HCl buffer solution (pH 7.4). The filter was then covered with MeltiLex, sealed in a sample bag, dried in an oven. The radioactivity retained in the filter was finally counted using MicroBeta Plus (Wallac).
(§1) The binding affinity (IC50) of a compound for the receptor was calculated by computerized nonlinear regression analysis (GraphPad Prism Program, San Diego, USA) using 7-8 varied concentrations of the compound run in duplicate tubes.

[2] = target: T2, human serotonin transporter (Homo sapiens, UniProt P31645); experiment: Binding affinity for serotonin transporter ([3H]Imipramine); details: HEK-293 membranes, 2 nM [3H]Imipramine
T2 construct: purchased PerkinElmer; host or cells: HEK-293
Procedure: For serotonin transporter binding assays, a reaction mixture with a final volume of 0.25 ml was prepared by mixing a test compound, human serotonin transporter membrane expressed in HEK-293 cells (PerkinElmer, 5 ug/well), [^3H]Imipramine (PerkinElmer, 2 nM) and 50 mM Tris-HCl (pH 7.4) buffer containing 120 mM NaCl and 5 mM KCl. The reaction mixture was incubated for 30 min at 27, and harvested through filtermate. A glass fiber filter presoaked in 0.5% PEI with ice cold 50 mM Tris-HCl buffer (pH 7.4) containing 0.9% NaCl.

[3] = target: T3, human recombinant 5-HT2C receptor (Homo sapiens, UniProt P28335); experiment: Binding affinity for serotonin 5-HT2C receptor ([3H]Mesulergine); details: CHO-K1 membranes, 1.3 nM [3H]Mesulergine
T3 construct: purchased PerkinElmer
T3 sequence (P28335 33-458): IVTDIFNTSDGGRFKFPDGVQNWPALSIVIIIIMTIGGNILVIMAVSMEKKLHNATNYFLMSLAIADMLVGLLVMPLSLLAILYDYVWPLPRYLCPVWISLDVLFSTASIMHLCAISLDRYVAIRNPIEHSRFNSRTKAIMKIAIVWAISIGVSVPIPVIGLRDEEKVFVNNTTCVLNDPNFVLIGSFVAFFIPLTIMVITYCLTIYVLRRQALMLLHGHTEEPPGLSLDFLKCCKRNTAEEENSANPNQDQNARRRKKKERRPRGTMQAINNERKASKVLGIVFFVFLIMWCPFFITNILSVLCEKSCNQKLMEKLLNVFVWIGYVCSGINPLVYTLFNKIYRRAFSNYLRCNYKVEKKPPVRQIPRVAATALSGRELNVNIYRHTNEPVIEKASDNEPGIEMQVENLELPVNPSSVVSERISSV
Procedure: Receptor binding affinities of the compounds for serotonin receptors were measured by the method described in the literature [Park W K et al., Pharmacol Biochem Behav.
as §1
Nonspecific binding was determined using 100 uM mianserin. The incubations were performed for 60 min at 27, and these were terminated by rapid filtration through filtermate. A glass fiber filter presoaked in 0.5% PEI.

T1 sequence (P28223 whole entry): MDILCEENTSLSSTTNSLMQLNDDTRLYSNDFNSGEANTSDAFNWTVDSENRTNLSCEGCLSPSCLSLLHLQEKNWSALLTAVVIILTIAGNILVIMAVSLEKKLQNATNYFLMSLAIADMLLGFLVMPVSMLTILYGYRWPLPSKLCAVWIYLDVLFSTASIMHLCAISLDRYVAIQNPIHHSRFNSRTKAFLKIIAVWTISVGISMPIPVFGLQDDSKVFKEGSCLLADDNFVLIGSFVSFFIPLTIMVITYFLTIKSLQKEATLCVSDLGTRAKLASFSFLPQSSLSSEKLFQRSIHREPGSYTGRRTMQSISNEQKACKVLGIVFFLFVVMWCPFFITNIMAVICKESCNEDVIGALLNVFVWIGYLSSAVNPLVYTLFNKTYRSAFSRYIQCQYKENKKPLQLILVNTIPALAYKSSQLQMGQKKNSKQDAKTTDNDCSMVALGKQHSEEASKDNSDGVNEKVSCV
T2 sequence (P31645 whole entry): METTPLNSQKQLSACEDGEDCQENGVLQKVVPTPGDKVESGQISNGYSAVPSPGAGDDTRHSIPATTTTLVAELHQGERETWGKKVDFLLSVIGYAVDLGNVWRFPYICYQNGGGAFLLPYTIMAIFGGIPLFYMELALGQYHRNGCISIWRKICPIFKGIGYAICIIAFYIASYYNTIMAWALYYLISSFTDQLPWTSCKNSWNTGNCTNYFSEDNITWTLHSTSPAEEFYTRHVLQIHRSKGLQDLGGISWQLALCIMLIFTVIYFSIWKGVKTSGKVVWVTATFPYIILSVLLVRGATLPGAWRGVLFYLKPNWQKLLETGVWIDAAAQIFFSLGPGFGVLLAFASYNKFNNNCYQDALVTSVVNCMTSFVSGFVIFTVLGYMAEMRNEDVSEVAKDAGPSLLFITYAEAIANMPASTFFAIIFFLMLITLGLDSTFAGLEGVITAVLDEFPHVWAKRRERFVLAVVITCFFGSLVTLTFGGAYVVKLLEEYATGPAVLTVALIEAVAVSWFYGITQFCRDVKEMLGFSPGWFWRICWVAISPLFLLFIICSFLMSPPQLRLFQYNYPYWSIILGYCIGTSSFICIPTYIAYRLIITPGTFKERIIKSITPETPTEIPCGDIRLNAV

Row | SMILES | pIC50 [1] | pIC50 [2] | pIC50 [3]
1 | CCn1c(C)c(C(=O)NCCCN2CCN(c3cccc(Cl)c3Cl)CC2)c(C)c1-c1ccccc1 [Example 80, N-(3-(4-(2,3-dichlorophenyl)piperazin-1-yl)propyl)-1-ethyl-2,4-dimethyl-5-phenyl-1H-pyrrole-3-carboxamide hydrochloride] | 7.33 | 7.01 | 7.38
2 | Cc1c(C(=O)NCCCN2CCN(c3cccc(Cl)c3Cl)CC2)cc(-c2ccccc2)n1C [Example 10, N-(3-(4-(2,3-dichlorophenyl)piperazin-1-yl)propyl)-1,2-dimethyl-5-phenyl-1H-pyrrole-3-carboxamide] | 7.34 | 7.21 | 7.92
3 | Cc1c(C(=O)NCCCN2CCN(c3cccc(Cl)c3Cl)CC2)c(C)n(C)c1-c1ccccc1 [Example 79, N-(3-(4-(2,3-dichlorophenyl)piperazin-1-yl)propyl)-1,2,4-trimethyl-5-phenyl-1H-pyrrole-3-carboxamide hydrochloride] | 7.48 | 7.10 | 7.80
4 | Cc1c(C(=O)NCCCN2CCN(c3cccc(Cl)c3Cl)CC2)cc(-c2ccccc2)n1N1CCCCC1 [Example 13, N-(3-(4-(2,3-dichlorophenyl)piperazin-1-yl)propyl)-2-methyl-5-phenyl-1-(piperidin-1-yl)-1H-pyrrole-3-carboxamide] | 7.17 | 6.53 | 6.10
5 | Cc1c(C(=O)NCCN2CCN(c3cccc(Cl)c3F)CC2)cc(C(C)(C)C)n1C [Example 186, 5-tert-butyl-N-(2-(4-(3-chloro-2-fluorophenyl)piperazin-1-yl)ethyl)-1,2-dimethyl-1H-pyrrole-3-carboxamide] | 6.92 |  | 6.53
6 | Cc1cccc(N2CCN(CCCNC(=O)c3cc(-c4ccc(Cl)cc4)[nH]c3C)CC2)c1C [Example 44, 5-(4-chlorophenyl)-N-(3-(4-(2,3-dimethylphenyl)piperazin-1-yl)propyl)-2-methyl-1H-pyrrole-3-carboxamide hydrochloride] | 7.04 | 7.72 | 6.72
7 | Cc1c(C(=O)N(C)CCCN2CCN(c3cccc(Cl)c3Cl)CC2)cc(-c2ccccc2)n1C [Example 37, N-(3-(4-(2,3-dichlorophenyl)piperazin-1-yl)propyl)-N,1,2-trimethyl-5-phenyl-1H-pyrrole-3-carboxamide hydrochloride] | 7.41 | 7.01 | 7.46
8 | Cc1c(Cl)cccc1N1CCN(CCNC(=O)c2cc(-c3ccccc3)n(C)c2C)CC1 [Example 184, N-(2-(4-(3-chloro-2-methylphenyl)piperazin-1-yl)ethyl)-1,2-dimethyl-5-phenyl-1H-pyrrole-3-carboxamide] | 6.82 |  | 6.63
9 | CCCn1c(-c2cccnc2)cc(C(=O)NCCCN2CCN(c3cccc(Cl)c3Cl)CC2)c1C [Example 101, N-(3-(4-(2,3-dichlorophenyl)piperazin-1-yl)propyl)-2-methyl-1-propyl-5-(pyridin-3-yl)-1H-pyrrole-3-carboxamide] | 7.34 | 6.88 | 6.46
10 | CCn1c(-c2ccc(OC)cc2)cc(C(=O)NCCCN2CCN(c3cccc(Cl)c3Cl)CC2)c1C [Example 75, N-(3-(4-(2,3-dichlorophenyl)piperazin-1-yl)propyl)-1-ethyl-5-(4-methoxyphenyl)-2-methyl-1H-pyrrole-3-carboxamide hydrochloride] | 6.85 | 7.00 | 7.46
11 | Cc1[nH]c(-c2ccccc2)c(C)c1C(=O)NCCCN1CCN(c2cccc(Cl)c2Cl)CC1 [Example 77, N-(3-(4-(2,3-dichlorophenyl)piperazin-1-yl)propyl)-2,4-dimethyl-5-phenyl-1H-pyrrole-3-carboxamide hydrochloride] | 7.41 | 7.44 | 7.80
12 | Cc1c(C(=O)NCCCN2CCN(c3ccc(Cl)cc3Cl)CC2)cc(-c2ccccc2)n1C [Example 154, N-(3-(4-(2,4-Dichlorophenyl)piperazin-1-yl)propyl)-1,2-dimethyl-5-phenyl-1H-pyrrole-3-carboxamide hydrochloride] | 6.67 | 7.64 | 6.46
13 | Cc1cccc(N2CCN(CCNC(=O)c3cc(C(C)(C)C)n(C)c3C)CC2)c1C [Example 189, 5-tert-butyl-N-(2-(4-(2,3-dimethylphenyl)piperazin-1-yl)ethyl)-1,2-dimethyl-1H-pyrrole-3-carboxamide] |  |  | 6.64
14 | Cc1ccc2cccc(N3CCN(CCNC(=O)c4cc(-c5ccccc5)n(C)c4C)CC3)c2n1 [Example 185, 1,2-dimethyl-N-(2-(4-(2-methylquinolin-8-yl)piperazin-1-yl)ethyl)-5-phenyl-1H-pyrrole-3-carboxamide] | 6.12 |  | 6.26
15 | CCCn1c(C)c(C(=O)NCCCN2CCN(c3cccc(Cl)c3Cl)CC2)c(C)c1-c1ccccc1 [Example 81, N-(3-(4-(2,3-dichlorophenyl)piperazin-1-yl)propyl)-2,4-dimethyl-5-phenyl-1-propyl-1H-pyrrole-3-carboxamide hydrochloride] | 7.60 | 7.11 | 7.12
16 | CCn1c(-c2ccccc2)cc(C(=O)NCCCCN2CCN(c3cccc(Cl)c3Cl)CC2)c1C [Example 43, N-(4-(4-(2,3-dichlorophenyl)piperazin-1-yl)butyl)-1-ethyl-2-methyl-5-phenyl-1H-pyrrole-3-carboxamide hydrochloride] | 7.55 | 7.19 | 7.55
17 | Cc1[nH]c(-c2ccc(Cl)cc2)cc1C(=O)NCCN1CCN(c2cccc(Cl)c2Cl)CC1 [Example 67, 5-(4-chlorophenyl)-N-(2-(4-(2,3-dichlorophenyl)piperazin-1-ypethyl)-2-methyl-1H-pyrrole-3-carboxamide hydrochloride] | 7.00 | 6.63 | 7.64
18 | Cc1c(C(=O)NCCN2CCN(c3cccc(Cl)c3Cl)CC2)cc(-c2ccc(Cl)cc2)n1C [Example 68, 5-(4-chlorophenyl)-N-(2-(4-(2,3-dichlorophenyl)piperazin-1-yl)ethyl)-1,2-dimethyl-1H-pyrrole-3-carboxamide hydrochloride] | 6.53 | 6.75 | 7.62
19 | Cc1ccc2cccc(N3CCN(CCNC(=O)c4cc(C(C)(C)C)n(C)c4C)CC3)c2n1 [Example 188, 5-tert-butyl-1,2-dimethyl-N-(2-(4-(2-methylquinolin-8-yl)piperazin-1-yl)ethyl)-1H-pyrrole-3-carboxamide] | 5.83 |  | 5.82
20 | Cc1c(Cl)cccc1N1CCN(CCNC(=O)c2cc(C(C)(C)C)n(C)c2C)CC1 [Example 187, 5-tert-butyl-N-(2-(4-(3-chloro-2-methylphenyl)piperazin-1-yl)ethyl)-1,2-dimethyl-1H-pyrrole-3-carboxamide] | 7.27 |  | 6.68
21 | Cc1c(C(=O)NCCN2CCN(c3cccc(Cl)c3Cl)CC2)cc(C(C)(C)C)n1C [Example 169, 5-tert-butyl-N-(2-(4-(2,3-dichlorophenyl)piperazin-1-yl)ethyl)-1,2-dimethyl-1H-pyrrole-3-carboxamide] | 7.24 |  | 
22 | CCn1c(C(C)(C)C)cc(C(=O)NCCCN2CCN(c3cccc(C)c3C)CC2)c1C [Example 190, 5-tert-butyl-N-(3-(4-(2,3-dimethylphenyl)piperazin-1-yl)propyl)-1-ethyl-2-methyl-1H-pyrrole-3-carboxamide] | 6.41 |  | 5.94
